The source made the active and inactive calls. The calls are words filed in the database; no cut-off is given here.
Test: Compound was evaluated for anesthetic activity (lowest dose producing loss of righting reflex)
Format: functional

Compared with CC(=O)[C@H]1CC[C@H]2[C@@H]3CC[C@H]4C[C@H](O)CC[C@]4(C)[C@H]3CC[C@]12C [BREXANOLONE], CC(=O)C1CC[C@H]2[C@@H]3CC[C@@H]4C[C@@H](O)CCC4(C)[C@H]3CCC12C (some centres not stated) is 8.1-fold higher in Activity: 3.1 mg/kg for the first, 25 mg/kg for the second.

Compared with CC(=O)[C@H]1CC[C@H]2[C@@H]3CC[C@H]4C[C@H](O)CC[C@]4(C)[C@H]3C(=O)C[C@]12C [ALFAXALONE], CC(=O)[C@H]1CC[C@H]2[C@@H]3CC[C@@H]4C[C@H](O)CC[C@]4(C)[C@H]3C(=O)C[C@]12C [RENANOLONE] is 2-fold higher in Activity: 3.1 mg/kg for the first, 6.3 mg/kg for the second.

Going from CC(=O)C1CC[C@H]2[C@@H]3CC[C@@H]4C[C@H](O)CCC4(C)[C@H]3CCC12C (some centres not stated) to CC(=O)C1CC[C@H]2[C@@H]3CC[C@H]4C[C@@H](O)CCC4(C)[C@H]3CCC12C (some centres not stated), the Activity rises from 3.1 mg/kg to 100 mg/kg (32-fold).

Test: Compound was evaluated for anesthetic activity (lowest dose producing loss of righting reflex); IA=Inactive
Format: functional

For CC(=O)C1=CCC2C3CC[C@H]4C[C@H](O)CCC4(C)C3C(=O)CC12C (some centres not stated), the Activity was “inactive”.
